According to BindingDB's records for doi:10.1016/j.bioorg.2016.08.009 (China Pharmaceutical University, 2016):

target: T1, Bromodomain-containing protein 4 [44-168] (Human, UniProt O60885); assay: BRD4-BD1 Binding Assay; conditions: 25 °C
T1 construct: 44-168
Experimental: 11 compounds were evaluated against BRD4-BD1 in vitro with compound 28a as the reference compound. BRD4 (44-168 aa) was bought from Active Motif. After preparing 1× assay buffer (modified HEPES Buffer), target compounds were transferred to assay plate by Echo, and the final concentration of DMSO solution was 0.1%. Then the preparation of protein solution and substrate solution in 1× assay buffer was performed. After that, 5 µL of protein solution was transferred to assay plate and incubated at room temperature for 15 min. The protein concentration was 5 nM. Then 5 µL of substrate solution was added to each well to start reaction with an incubation period for 60 min at room temperature. Finally, 15 µL acceptor and donor solution were added, followed by another incubation period for 60 min at room temperature under subdued light.

**Q.** With `COc1ccc(CN2c3cc(-c4c(C)noc4C)ccc3NC(=O)C2C)cc1` [2(R)-6-(3,5-dimethylisoxazol-4-yl)-4-(4-methoxybenzyl)-3-methyl-3,4-dihydroquinoxalin-2(1H)-one (5b)] as the molecule, how does the IC50 read?
**A.** 160 nM

**Q.** For `Cc1noc(C)c1-c1ccc2c(c1)N(C1CCCC1)[C@H](C)C(=O)N2` [4(R)-4-cyclopentyl-6-(3,5-dimethylisoxazol-4-yl)-3-methyl-3,4-dihydroquinoxalin 2(1H)-one (5], which IC50 is on record?
**A.** 370 nM

**Q.** Which IC50 does the source give for `Cc1noc(C)c1-c1ccc2c(c1)N(Cc1ccc(Cl)cc1)CC(=O)N2` [4-(4-Chlorobenzyl)-6-(3,5-dimethylisoxazol-4-yl)-3,4-dihydroquinoxalin-2(1H)-one (5k)] here?
**A.** 500 nM

**Q.** How did the IC50 turn out when `Cc1noc(C)c1-c1ccc2c(c1)N(Cc1ccccc1)C(CO)C(=O)N2` [8(R)-4-benzyl-6-(3,5-dimethylisoxazol-4-yl)-3-(hydroxymethyl)-3,4-dihydroquinoxalin-2(1H)-one (5h)] was run?
**A.** 650 nM

**Q.** `Cc1noc(C)c1-c1ccc2c(c1)N(Cc1ccccc1)[C@H](Cc1ccccc1)C(=O)N2` [(R)-3,4-dibenzyl-6-(3,5-dimethylisoxazol-4-yl)-3,4-dihydroquinoxalin-2(1H)-one (5j)] was tested. Which IC50 did it give?
**A.** 151 nM

**Q.** For `CC[C@@H]1C(=O)Nc2ccc(-c3c(C)noc3C)cc2N1Cc1ccccc1` [(R)-4-benzyl-6-(3,5-dimethylisoxazol-4-yl)-3-ethyl-3,4-dihydroquinoxalin-2(1H)-one (5i)], which IC50 is on record?
**A.** 73 nM

**Q.** For `COc1ccc(CN2c3cc(-c4c(C)noc4C)ccc3N(C)C(=O)[C@H]2C)cc1` [(R)-6-(3,5-dimethylisoxazol-4-yl)-4-(4-methoxybenzyl)-1,3-dimethyl-3,4-dihydroquinoxalin-2(1H)-one (8)], which IC50 is on record?
**A.** 220 nM
